The test system of data set [1] is mice subjected to chronic restraint stress (CRS). Put plainly: Y-maze alternation task, chronic restraint stress (CRS) mice. Format: in vivo, mouse. How it is done: C57/B16 mice, males and females were ordered from Jackson Laboratories at 8 weeks old and were kept in normal housing conditions (12 h light ON cycle starting at 7 am/water and food ad libitum) for one week. During this week, animals were single housed and handled to reduce the anxiety-like response toward the experimenter. To induce a working memory deficit, mice were subjected to a chronic restraint stress protocol (CRS). They were placed in a 50 ml Falcon® tube, twice a day, for 1 hour during their diurnal cycle. The time of occurrence of the stress was randomized every day to avoid predictability. CRS was not applied on testing days. Y-maze test occurred 15 hours minimum after the last stressor.
Mice were first habituated to the Y-maze apparatus and distal cues during 2 consecutive days over a 10 min free exploration session (one session per day). The next day, animals performed a training session consisting in seven successive trials separated by a 30 s inter-trial interval (ITI); during this training session, mice were familiarized with the experimental procedure (opening and closing of the doors and confinement into the goal arms). For each trial, mice remained in the start-box for a 30 s ITI. Then, the door was opened and the mouse was allowed to enter freely one of the two goal arms; the chosen arm was closed and the choice was recorded. After a 30 s confinement period into the chosen arm, the mouse was removed and brought back to the start-box for a second trial identical to the first one and this procedure was repeated over the series of trials.
The same general procedure used in the training session was implemented 24 h later, except that the ITI was lengthened to 90 s. For this experiment, animals were acutely injected i.p. with vehicle or αPAM, 30 minutes before the beginning of the test. To dissociate memory deficits from an eventual progressive loss of motivation to alternate over the series, an 8th trial was added to the series which was separated from the 7th trial by a shorter ITI (5 s). All animals failing to alternate at the 8th trial were excluded. The mean alternation rate was calculated and was expressed in percentage (number of alternation done by the animal/total number of alternation possible×100)±SEM. The percentage of alternation during the entire task is considered as an index of working memory performance (50% of being a random alternation rate). Factorial ANOVA was applied to the data to reveal differences between groups. If the ANOVA was significant for group effect (p<0.05), Scheffe post-hoc analysis were conducted to identify which groups are different from each other.
All drugs were diluted in a vehicle solution containing 85% H2O, 14% propylene glycol (Sigma Aldrich) and 1% Tween 80 (Sigma Aldrich). Working solutions were prepared at a concentration of 10 mg/mL and administered i.p. adjusted to the body weight of each animal. Doses used were either 1, 5, 10 or 20 mg/kg. For all Y maze experiments, animals were acutely injected i.p. with vehicle or αPAM, 30 minutes before the beginning of the test.

A short description of data set [2]: Human liver microsome stability assay. Format: in vitro ADME. The following applies: 10 μM compound; for half-life at 10 μM: human, liver microsomes, read-out: Half-life (min) (HumanLM); for % left (Human LM), (1 h): cells marked (1 h). Here is the method: (§1) Human and mouse liver microsomes were obtained fom BD Gentest.
(§2) Each evaluation included six independent assays carried out three at a time, on two different days
(§3) 2. For a total volume of Microsomal Assay Mixture (MAM) 390 μL, sufficient for seven time points, combine the following
(§4) 3. Sonicate MAM for 5 min and meanwhile thaw microsomes (20 mg/mL) (BD Gentest, Cat #452156) on ice.
(§5) 4. Aliquot 100 μL of ice cold ISTD into 7 separate 1.5 mL conical vials and label them the time points for 0, 10, 20, 40, 60, 90, and 120 min.
(§6) 5. Arrange the timer. Microsomes (Final concentration of 0.5 mg/mL) should be added to all time points except the zero time point.
(§7) 6. Add 50 μL of the MAM solution to the conical vial labelled as zero time point. Place the remaining MAM solution in the incubator (37° C.) for 5 min and initiate the reaction with addition of microsomes (8.8 μL) and record the time.
(§8) 7. At the end of each time interval remove 50 μL and add 100 μL to ISTD in conical vial, sonicate for 10 sec and spin down at 10,000 rpm for 5 minutes.
(§9) 8. Take 100 μL of supernatant and transfer to Spin-X HPLC filter tubes (Corning Incorporated, Cat #8169) and centrifuge at 13,000 rpm for 5 minutes and take 5 μL from this solution and dilute in 495 μL of LCMS grade methanol (Fischer scientific, CAS #67-56-1) in an 2 mL glass auto sampler vial (Microsolv, Cat #95025-WCV) 9. The samples are analyzed by LCMS-8040. (Shimadzu)
(§10) Calculation: From the peak area, calculate the following
(§11) The compounds are tested for the metabolic stability in the Human and Mouse Liver microsomes at 10 μM concentration.

Data set [3] can be described thus: Mouse liver microsome stability assay. To be noted: 10 μM compound; for half-life at 10 μM: mouse, liver microsomes, read-out: Half-life (min) (MouseLM); for % left (MouseLM), (1 h): cells marked (1 h). Format: in vitro ADME. How it is done: as §1, §2, §3, §4, §5, §6, §7, §8, §9, §10, §11
A further data set has as its system mice. The data set can be described thus: Home cage locomotor activity in mice. In kind it is in vivo, mouse. The following applies: vs vehicle. How it is done:
Mice were placed in a clean cage, similar to their home-cage (28.2×17.1 cm), without bedding and lid to allow video recording from the top. Tacking was performed and distance travelled (30 min session) was analyzed using ANY-Maze™ tracking software (version 499z) to assess the locomotor activity in a home-cage environment. Animals received a single dose of compound or vehicle solution 1 hour before testing.
Drug preparation and administration: All drugs were diluted in a vehicle solution containing 85% H2O, 14% propylene glycol (Sigma Aldrich) and 1% Tween 80 (Sigma Aldrich). Working solutions were prepared at a concentration of 20 mg/mL and administered i.p. adjusted to the body weight of each animal. Doses used were either 1, 5 or 10 mg/kg. For all locomotor activity experiments, animals were acutely injected i.p. with vehicle or αPAM, 1 hour before the beginning of the test.

Where [4] appears, read: 1 mg/kg i.p. 30 min before testing.
The mark [5] stands for this setting: 10 mg/kg i.p. 30 min before testing.
Where [6] appears, read: 5 mg/kg i.p. 30 min before testing.
Where [7] appears, read: 1 mg/kg i.p. 60 min before testing.
Where [8] appears, read: 5 mg/kg i.p. 60 min before testing.
Where [9] appears, read: 10 mg/kg i.p. 60 min before testing.

Where “and” joins values, the source holds several entries; their conditions need not be identical. Equal entries are not always repeated. Entries after “also recorded” stand apart in the source; their conditions may differ. A value given as a limit tells only on which side of the number the result lay.

For the compound `C#Cc1ccc2c(c1)C(c1ccccc1F)=N[C@@H](C)c1c(C(=O)N(C)C)ncn1-2` [GL-I-54, (S)-8-ethynyl-6-(2-fluorophenyl)-N,N,4-trimethyl-4H-benzo[f]imidazo[1,5-a][1,4]diazepine-3-carboxamide], the “effect on CRS-induced working memory deficit (percent alternation rate, Y-maze)” value (shortened to “effect … (percent alternation rate, Y-maze)”) in data set [1] (setting [4]) is “decreased performance”; in data set [1] (setting [5]) it was “significant reversal of CRS-induced impairment in working memory; also recorded: significant pro-cognitive effect”. Moreover, the “% left after 2 hr. (Human LM)” value in data set [2] (2 hr) was determined as 36.4 ± 2.0%. Further, the half-life at 10 μM worked out at 100 ± 4.5 min in data set [2] and 53 ± 10 min in data set [3]. Moreover, the “% left after 2 hr. (MouseLM)” value in data set [3] is 15.0% and 15.0 ± 3.0%.
Regarding `C#Cc1ccc2c(c1)C(c1ccccc1F)=N[C@H](C)c1c(C(=O)N(C)C)ncn1-2` [GL-II-73, (R)-8-ethynyl-6-(2-fluorophenyl)-N,N,4-trimethyl-4H-benzo[f]imidazo[1,5-a][1,4]diazepine-3-carboxam], the “effect … (percent alternation rate, Y-maze)” value in data set [1] (setting [6]), in data set [1] (setting [5]) and in data set [1] (20 mg/kg i.p. 30 min before testing) was “pro-cognitive effect” throughout. The figures for the “locomotor activity (distance travelled, 30 min session)” value (“locomotor activity” for short) with mice (setting [7]), in the data set on mice (setting [8]) and in the data set with mice (setting [9]) were “no significant effect; also recorded: no effect on locomotor activity”, “significant increase in locomotion; also recorded: significant increase in distance traveled” and “significant increase in locomotion; also recorded: significant increase in distance traveled”, respectively. In addition, in data set [2], the “Half-life (min) (HumanLM)” value turned out to be 755 ± 243 min. Also, the “Half-life (min) (MouseLM)” value in data set [3] is given as 309 ± 36 min. Further, the “% left (MouseLM), (1 h)” value in data set [3] is 81.6% and 86.6 ± 0.2%.
Take `C#Cc1ccc2c(c1)C(c1ccccc1F)=N[C@H](C)c1c(C(=O)NCC)ncn1-2` [GL-II-74, (R)—N-ethyl-8-ethynyl-6-(2-fluorophenyl)-4-methyl-4H-benzo[f]imidazo[1,5-a][1,4]diazepine-3-carboxamide]: the “Alternation rate (%)” value in data set [1] (Dose 1-5-10 mg/kg) was under 58.3%. The “locomotor activity” value in the data set with mice (setting [7]) is on record as “no significant effect; also recorded: no effect on locomotor activity”; in the data set with mice (setting [8]), “no significant effect; also recorded: no effect on locomotor activity”; in the data set on mice (setting [9]), “significant increase in locomotion; also recorded: significant increase in distance traveled”. The half-life at 10 μM was 751 ± 214 min in data set [2] and 69 ± 3 min in data set [3]. Moreover, the “% left (MouseLM), (1 h)” value in data set [3] came out at 56.5 ± 0.3%.
For the compound `C#Cc1ccc2c(c1)C(c1ccccc1F)=N[C@H](C)c1c(C(=O)NC3CC3)ncn1-2` [GL-II-75, (R)—N-cyclopropyl-8-ethynyl-6-(2-fluorophenyl)-4-methyl-4H-benzo[f]imidazo[1,5-a][1,4]diazepine-3-carboxamide], the “effect … (percent alternation rate, Y-maze)” value in data set [1] (setting [4]), in data set [1] (setting [6]) and in data set [1] (setting [5]) was “significant reversal of CRS-induced impairment in working memory; also recorded: significant pro-cognitive effect” in each case. The “locomotor activity” value in the data set with mice (setting [7]) is on record as “significant increase in locomotion; also recorded: significant increase in distance traveled”; with mice (setting [8]) it was “no significant effect; also recorded: no effect on locomotor activity”; in the data set with mice (setting [9]) it was “significant increase in locomotion; also recorded: significant increase in distance traveled”. Also, the half-life at 10 μM in data set [2] turned out to be 712 ± 165 min; in data set [3], 239 ± 22 min. For the same compound, in data set [3], the “% left (MouseLM), (1 h)” value was found to be 83.5 ± 0.2%.
As to `C#Cc1ccc2c(c1)C(c1ccccc1F)=N[C@H](C)c1c(C(=O)N3CCCC3)ncn1-2` [GL-II-76, (R)-(8-ethynyl-6-(2-fluorophenyl)-4-methyl-4H-benzo[f]imidazo[1,5-a][1,4]diazepin-3-yl)(pyrrolidin-1-yl)methanone], in data set [1] (Dose 10 mg/kg), the “Alternation rate (%)” value is given as 47.2%. Moreover, in data set [2], the “% left (Human LM), (1 h)” value was 75 ± 0.1% and the half-life at 10 μM was 154 ± 5 min. Besides, in data set [3], the “% left (MouseLM), (1 h)” value is 18.6 ± 0.3% and the half-life at 10 μM was 23 ± 1 min.
`C#Cc1ccc2c(c1)C(c1ccccc1F)=N[C@H](C)c1c(C(=O)NC)ncn1-2` [MP-III-022]: the “Alternation rate (%)” value in data set [1] (Dose 5 mg/kg) was 45.5%. In addition, in the data set on mice (i.p. 60 min before testing, dose not given), the “locomotor activity” value is listed as “no significant difference; also recorded: no effect”. Moreover, in data set [2], the “% left (Human LM), (1 h)” value is given as 69.4 ± 0.4% and the half-life at 10 μM was 141 ± 18 min. For the same compound, in data set [3], the “% left after 2 hr. (MouseLM)” value is 76.6% and 76.6 ± 0.2%; the half-life at 10 μM turned out to be 164 ± 10 min.

These data come from US10906909B2, “Treatment of cognitive and mood symptoms in neurodegenerative and neuropsychiatric disorders with ALPHA5-containing GABAA receptor agonists” (UWM Research Foundation, Inc., priority 2016, dated 2021).
